Test: Appetite reducing effects of coadministered procyanidin and hydroxycitric acid: voluntary food intake, placebo-controlled cross-over study
Type: in vivo, male Wistar rats
Settings: 155 mg hydroxycitric acid per kg rat alone, single intragastric bolus, vs placebo, paired student t, FIG. 2
Experimental: The appetite suppressive effects of a combination of procyanidin (pine bark extract containing 65 wt. % procyanidin) and hydroxycitric acid (Regulator™ ex HOB Ireland, Dublin, Ireland) was tested in male Wistar rats. In a placebo-controlled cross-over study, either 13 mg procyanidin per kg rat (A), 155 mg hydroxycitric acid per kg rat (B) or 13 mg procyanidin per kg rat and 155 mg hydroxycitric acid per kg rat (C) were administered as a single bolus intragastrically at 30 min before onset of the active (dark) period.
Subsequently, voluntary food intake was recorded continuously for 48 hours. Following this period, the experiment was repeated as part of the cross-over design (that is, rats which first received the procyanidins now received the placebo and vice versa).
Results are shown as absolute cumulative food intake after 1,2 and 4 hours (see FIG. 2). Statistical analysis (paired student t) was made of the data.

## O=C(O)CC(O)(C(=O)O)C(O)C(=O)O (centres unmarked) [hydroxycitric acid]
  absolute cumulative food intake after 1, 2 and 4 hours: did not result in a significant decrease
Listed as HCA
  absolute cumulative food intake after 1, 2 and 4 hours: did not show any significant appetite reducing effect

From patent US6638542B2, “Reducing appetite in mammals by administering procyanidin and hydroxycitric acid” (Nutricia N.V., priority 2001, dated 2003)
